This note sets out measurements from article PMC10893631, “Receptor-based pharmacophore modeling, molecular docking, synthesis and biological evaluation of novel VEGFR-2, FGFR-1, and BRAF multi-kinase inhibitors” (BMC Chemistry, 2024).

The target of one assay is T1, VEGFR-2 (Homo sapiens, UniProt P35968).
T1 construct: purchased BPS Biosciences 40325
Nature of the assay: VEGFR-2 kinase assay kit (BPS), Kinase-Glo Max luminescence. The note with it: VEGFR-2, single dose 10 µM, duplicate, mean ± SD. Type of assay: biochemical. Here is the method:
2. Biochemical kinase assay procedure
The inhibitory activity against different kinases was determined using kinase kits […]
from BPS Biosciences and kinase-Glo Max luminescence kinase assay kit (Promega).
The assay was carried out according to the protocol provided by the manufacturer. A stock solution of the synthesized derivatives in 100% DMSO was prepared. Subsequently, the compounds were diluted to 10% DMSO.
A master mixture was prepared according to the number of wells. For VEGFR-2 and FGFR-1 biochemical assays each well include 6 μl of 5x Kinase Buffer 1 + 1 μl of 500 μM ATP + 1 μl of PTK Substrate (Poly-Glu,Tyr 4:1) (10 mg/ml) + 17 μl of distilled water. For BRAF assay each well include 6 μl of 5x Kinase Buffer 1 + 1 μl of ATP (500 μM) + 10 μl of 5X Raf substrate + 8 μl of distilled water. 1x Kinase buffer 1 was prepared by mixing 600 μl of 5x Kinase Buffer 1 with 2400 μl water to give 3 mL. Kinases were thawed on ice and were diluted with 1x Kinase Buffer 1.
To start the biochemical reaction, 25 µL of the master mixture was added to each well in 96 well plate. 5 µL of 10% DMSO was added to positive control wells and blank wells. 5 µL of diluted inhibitor was added to each well labelled with the test inhibitor so that the final concentration of DMSO is 1% in all reactions. Then 20 µL of (1 ng / μl) in case of VEGFR-2 and FGFR-1 or (2.5 ng/μl) in case of BRAF in 1x kinase buffer was added to positive control wells and wells labelled with the inhibitor, while 20 µL 1x kinase buffer 1 was added to the […]
The plate was incubated at 30 °C for 45 min. Subsequently, 50 μl of Kinase-Glo Max luminescence reagent was added to each well and the plate was covered with aluminum foil and incubated at room temperature 15 min. Finally, the luminescence was recorded using multimode microplate reader. Kinase activity assays were performed in duplicate at each […]
The luminescence data were analyzed as follows. The difference between luminescence intensities in the absence of kinase (Lut) and in the presence of kinase (Luc) was defined as 100 % activity (Lut – Luc). Using luminescence signal (Lu) in the presence of the compound, % activity was calculated as: % activity = {(Lut - Lu)/(Lut - Luc)}×100%. The […]
concentration of the test compounds required to reduce the kinase activity by 50% was determined from dose-response curves and recorded as their IC50. […]

Assay [1] deals with NCI panel of 60 tumor cell lines. Nature of the assay: NCI SRB growth inhibition, whole panel mean (single dose 10 µM / five-dose). Type of assay: cell-based, human. The following applies: Homo sapiens, 10 µM. Here is the method:
(§1) Screening of cytotoxic activity against a panel of sixty human tumor cell lines The selected compounds by NCI were evaluated for their anticancer activity in a two- stage process. […] Then, the output from the single dose screen is reported as a mean graph. […] Assay protocol. […] For a typical screening experiment, cells are inoculated into 96 well microtiter plates in 100 µL at plating densities ranging from 5000 to 40,000 cells/well depending on the doubling time of individual cell lines. […] After 24 h, two plates of each cell line are fixed in situ with TCA, to represent a measurement of the cell population for each cell line at the time of drug addition (Tz). The experimental drugs are solubilized in dimethyl sulfoxide at 400-fold the desired final maximum test concentration and stored frozen prior to use. At the time of drug addition, an aliquot of frozen concentrate is thawed and diluted to twice the desired final maximum test concentration with complete medium containing 50 µg/mL gentamicin. Additional four, 10-fold or ½ log serial dilutions are made to provide a total of five drug concentrations plus control. Aliquots of 100 mL of these different drug dilutions are added to the appropriate microtiter wells already containing […] of medium, resulting in the required final drug concentrations. […] For adherent cells, the assay is terminated by the addition of cold TCA. […] The supernatant is discarded, and the plates are washed five times with tap water and air dried. Sulforhodamine B (SRB) solution ([…]) at 0.4% (w/v) in 1% acetic acid is added to each well, and plates are incubated for 10 min at room temperature. After staining, unbound dye is removed by washing five times with 1% acetic acid and the plates are air dried. […] Using the seven absorbance measurements [time zero, (Tz), control growth, (C), and test growth in the presence of drug at the five concentration levels (Ti)], the percentage growth is calculated at each of the drug concentrations levels. Percentage growth inhibition is calculated as: [(Ti Tz)/(C–Tz)] x 100 for concentrations for which Ti>/=Tz and [(Ti-Tz)/Tz] x 100 for concentrations for which Ti < Tz. Three dose response parameters are calculated for each experimental agent. […] The drug concentration resulting in total growth inhibition (TGI) is calculated from Ti = Tz. […] Values are calculated for each of these three parameters if the level of activity is reached; however, if the effect is not reached or is exceeded, the value for that parameter is expressed as greater or less than the maximum or minimum concentration tested.

Another assay concerns ACHN. Briefly: NCI SRB growth inhibition (single dose 10 µM / five-dose). It is filed as cell-based, human. The following applies: Homo sapiens; ACHN (Renal cancer), 10 µM; read-out: GI%. Here is the method: as §1
Another assay deals with HCT-116. The assay is described as above. Type of assay: cell-based, human. The following applies: Homo sapiens, HCT-116; read-out: GI%. Here is the method: as §1
Another assay has as its system HOP-92. Described as above. Type of assay: cell-based, human. The following applies: Homo sapiens; HOP-92 (Non-small cell lung cancer), 10 µM; read-out: GI%. Here is the method:
as §1

The subject of the next assay is M14. Described as above. It is filed as cell-based, human. The following applies: Homo sapiens; M14 (Melanoma), 10 µM; read-out: GI%. The protocol: as §1
For a further assay, the system named is MOLT-4. Described as above. The note with it: Homo sapiens; MOLT-4 (Leukemia), 10 µM; read-out: GI%. Type of assay: cell-based, human. Here is the method: as §1
A further assay has as its system NCI-H226. The assay is described as above. Type of assay: cell-based, human. The note with it: Homo sapiens; NCI-H226 (Non-small cell lung cancer), 10 µM; read-out: GI%. The protocol:
as §1

The next assay deals with NCI-H322M. Described as above. It is filed as cell-based, human. The note with it: Homo sapiens; NCI-H322M (Non-small cell lung cancer), 10 µM; read-out: GI%. The protocol:
as §1

The subject of a further assay is OVCAR-4. The assay is described as above. Type of assay: cell-based, human. The following applies: Homo sapiens; OVCAR-4 (Ovarian cancer), 10 µM; read-out: GI%. Here is the method: as §1
The subject of the next assay is U251. The description is as above. It is filed as cell-based, human. The following applies: Homo sapiens, U-251; U251 (CNS cancer), 10 µM; read-out: GI%. The protocol:
as §1

The subject of a further assay is UO-31. The description is as above. It is filed as cell-based, human. The following applies: Homo sapiens; UO-31 (Renal cancer), 10 µM; read-out: GI%. The protocol:
as §1

Setting [2] is: mean over NCI 60 cell lines, > 100% = lethal effect, read-out: mean growth inhibition % (GI%).
The mark [3] stands for this setting: mean over NCI panel of 60 tumor cell lines, read-out: Mean growth inhibition %.

Like-named read-outs stand apart in the source and are kept apart here. Some results are limits rather than exact numbers.

T1 sequence (P35968 20-1356): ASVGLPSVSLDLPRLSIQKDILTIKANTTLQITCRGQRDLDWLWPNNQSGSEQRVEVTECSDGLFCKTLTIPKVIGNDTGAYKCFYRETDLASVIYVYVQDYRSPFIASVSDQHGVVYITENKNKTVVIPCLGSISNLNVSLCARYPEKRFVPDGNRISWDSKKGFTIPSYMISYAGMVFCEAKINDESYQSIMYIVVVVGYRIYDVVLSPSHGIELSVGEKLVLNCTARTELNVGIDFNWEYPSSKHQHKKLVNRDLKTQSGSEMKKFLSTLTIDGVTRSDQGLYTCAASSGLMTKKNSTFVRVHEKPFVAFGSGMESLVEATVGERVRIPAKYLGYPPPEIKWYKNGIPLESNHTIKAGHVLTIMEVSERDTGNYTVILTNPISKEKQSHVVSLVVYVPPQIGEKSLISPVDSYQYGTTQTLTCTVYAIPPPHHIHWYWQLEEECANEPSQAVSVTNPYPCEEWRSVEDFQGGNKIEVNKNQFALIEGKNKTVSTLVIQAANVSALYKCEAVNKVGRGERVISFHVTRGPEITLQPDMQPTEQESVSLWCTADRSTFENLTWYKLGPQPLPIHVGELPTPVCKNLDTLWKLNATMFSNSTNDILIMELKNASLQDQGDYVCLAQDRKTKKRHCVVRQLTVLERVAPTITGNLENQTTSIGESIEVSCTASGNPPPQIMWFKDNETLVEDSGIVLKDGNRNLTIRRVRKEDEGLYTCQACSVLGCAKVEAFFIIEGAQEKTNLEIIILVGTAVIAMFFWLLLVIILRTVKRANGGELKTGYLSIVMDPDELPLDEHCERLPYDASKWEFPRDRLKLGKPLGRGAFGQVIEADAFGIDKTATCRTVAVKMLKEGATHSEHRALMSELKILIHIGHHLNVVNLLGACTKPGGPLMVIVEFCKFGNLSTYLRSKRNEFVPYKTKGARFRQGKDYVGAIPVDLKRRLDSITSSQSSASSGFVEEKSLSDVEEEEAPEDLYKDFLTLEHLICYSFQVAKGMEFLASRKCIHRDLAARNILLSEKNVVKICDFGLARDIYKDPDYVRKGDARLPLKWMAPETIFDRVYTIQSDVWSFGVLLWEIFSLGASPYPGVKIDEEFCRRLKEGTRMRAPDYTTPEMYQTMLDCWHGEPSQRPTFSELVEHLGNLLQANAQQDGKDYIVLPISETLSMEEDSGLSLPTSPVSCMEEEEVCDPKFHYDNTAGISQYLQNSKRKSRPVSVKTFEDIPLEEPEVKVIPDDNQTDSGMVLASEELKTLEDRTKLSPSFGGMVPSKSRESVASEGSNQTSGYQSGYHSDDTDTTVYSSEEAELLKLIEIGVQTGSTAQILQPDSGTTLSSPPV

As to `O=C(NN=Cc1cccc(O)c1)c1ccc2[nH]c(-c3ccccc3)nc2c1` [8b, N'-(3-Hydroxybenzylidene)-2-phenyl-1H-benzo[d]imidazole-5-carbohydrazide], the inhibition at 10 µM is 23.8 ± 1.47% against VEGFR-2; 8.49% in assay [1] (setting [2]); 8.49% in [1] (setting [3]); under 5% in the assay on ACHN; under 5% in the assay with HCT-116; under 5% with HOP-92. The inhibition at 10 µM in the assay with M14 was under 5%; in the assay on MOLT-4, 31.5%; with NCI-H226 it was under 5%; in the assay with NCI-H322M it was under 5%; with OVCAR-4 it was 12.4%; with U251, under 5%. In addition, the inhibition at 10 µM with UO-31 was 21.6%.

Regarding `COc1cccc(C=NNC(=O)c2ccc3[nH]c(-c4ccccc4)nc3c2)c1` [8c, N'-(3-Methoxybenzylidene)-2-phenyl-1H-benzo[d]imidazole-5-carbohydrazide], the inhibition at 10 µM was 18.5 ± 0.95% on VEGFR-2; 20.7% in assay [1] (setting [2]); 20.7% in assay [1] (setting [3]); under 5% in the assay on ACHN; 12.7% in the assay with HCT-116; under 5% in the assay with HOP-92. The inhibition at 10 µM in the assay with M14 amounted to 8.28%; in the assay with MOLT-4, 35.4%; with NCI-H226, 19.3%; with NCI-H322M, 6.09%; in the assay on OVCAR-4, 20.1%; in the assay with U251 it was 14.3%. Further, the inhibition at 10 µM in the assay on UO-31 worked out at 30.6%.

As for `COc1ccc(C=NNC(=O)c2ccc3[nH]c(-c4ccccc4)nc3c2)cc1O` [8e, N'-(3-Hydroxy-4-methoxybenzylidene)-2-phenyl-1H-benzo[d]imidazole-5-carbohydrazide], the inhibition at 10 µM on VEGFR-2 is 36.4 ± 1.91%; in assay [1] (setting [2]), 16.8%; in assay [1] (setting [3]), 16.8%; in the assay with ACHN, under 5%; in the assay on HCT-116, 15%; in the assay with HOP-92, 6.3%. Also, the inhibition at 10 µM with M14 is 19.7%; with MOLT-4, 36.1%; with NCI-H226, 11.4%; in the assay on NCI-H322M it was under 5%; with OVCAR-4, under 5%; in the assay on U251 it was 14.6%. Further, in the assay with UO-31, the inhibition at 10 µM was found to be 38.2%.

In the case of `COc1ccc(-c2nc3cc(C(=O)NN=Cc4cccc(O)c4)ccc3[nH]2)cc1` [8i, N'-(3-Hydroxybenzylidene)-2-(4-methoxyphenyl)-1H-benzo[d]imidazole-5-carbohydrazide], the inhibition at 10 µM was 45.2 ± 2.22% against VEGFR-2; 33.1% in [1] (setting [2]); 33.1% in assay [1] (setting [3]); under 5% in the assay on ACHN; 42.8% in the assay with HCT-116; 27% in the assay with HOP-92. In addition, the inhibition at 10 µM was found to be 39.1% with M14; 79% in the assay with MOLT-4; 7.75% in the assay with NCI-H226; 18.3% with NCI-H322M; 27.1% with OVCAR-4; 32.1% in the assay on U251. Further, the inhibition at 10 µM with UO-31 was 10.5%.

`COc1ccc(-c2nc3cc(C(=O)NN=Cc4cc(OC)ccc4OC)ccc3[nH]2)cc1` [8m, N'-(2,5-Dimethoxybenzylidene)-2-(4-methoxyphenyl)-1H-benzo[d]imidazole-5-carbohydrazide]: the inhibition at 10 µM on VEGFR-2 is 6.67 ± 0.08%; in assay [1] (setting [2]), 10.9%; in assay [1] (setting [3]), 10.9%; in the assay on ACHN, 8.59%; in the assay on HCT-116, 22.3%; with HOP-92, under 5%. Moreover, the inhibition at 10 µM with M14 was under 5%; in the assay with MOLT-4, 35.8%; in the assay with NCI-H226, under 5%; in the assay on NCI-H322M, under 5%; with OVCAR-4 it was 8.31%; in the assay with U251 it was 9.71%. Also, the inhibition at 10 µM in the assay on UO-31 was found to be 9.12%.

Take `O=C(NN=Cc1cccc(O)c1)c1ccc2[nH]c(-c3ccc(Cl)cc3)nc2c1` [8p, 2-(4-Chlorophenyl)-N'-(3-hydroxybenzylidene)-1H-benzo[d]imidazole-5-carbohydrazide]: the inhibition at 10 µM is 22.3 ± 0.86% at VEGFR-2; 25.4% in assay [1] (setting [2]); 25.4% in assay [1] (setting [3]); under 5% with ACHN; 37.7% in the assay with HCT-116; 6.79% in the assay on HOP-92. Moreover, the inhibition at 10 µM with M14 is 25.4%; in the assay on MOLT-4, 68.6%; with NCI-H226, 30.1%; in the assay with NCI-H322M, under 5%; with OVCAR-4 it was 15.7%; in the assay on U251 it was 75.5%. Besides, in the assay with UO-31, the inhibition at 10 µM is 14.9%.

On to `COc1ccc(OC)c(C=NNC(=O)c2ccc3[nH]c(-c4ccc(Cl)cc4)nc3c2)c1` [8t, 2-(4-Chlorophenyl)-N'-(2,5-dimethoxybenzylidene)-1H-benzo[d]imidazole-5-carbohydrazide], for which the inhibition at 10 µM was 34 ± 2.57% on VEGFR-2; 33.5% in assay [1] (setting [2]); 33.5% in assay [1] (setting [3]); 53.1% in the assay with ACHN; 43.1% with HCT-116; 36.6% in the assay on HOP-92. Moreover, the inhibition at 10 µM amounted to 30.9% with M14; 58.9% in the assay on MOLT-4; 35.7% with NCI-H226; 28.9% with NCI-H322M; 38.9% with OVCAR-4; 25.7% in the assay on U251. Further, in the assay on UO-31, the inhibition at 10 µM was found to be 31.9%.
